# According to patent US20260152503A1, “SPIROBICYCLIC COMPOUNDS” (ACERAND THERAPEUTICS (HONG KONG) LIMITED, priority 2022, published 2026):
# Experiments:
# [1] = target: T1, FGFR2 (Homo sapiens, UniProt P21802, K310R/N549K); assay: pERK potency assay (In Cell ELISA), AN3CA cells; format: cell-based; details: for IC50: pERK, AN3CA (FGFR2/k310R, N549K) cells, 3 hours; for FGFR1 IC50/FGFR2 IC50 / FGFR3 IC50/FGFR2 IC50: selectivity ratio, pERK potency; for FGFR1 IC50/FGFR2 IC50: FGFR2 relative to FGFR1; for FGFR3 IC50/FGFR2 IC50: FGFR2 relative to FGFR3
# T1 construct: in FGFR aberrations of AN3CA (FGFR2/k310R, N549K); host or cells: AN3CA
# Excerpt: (§1) The purpose of this assay is to measure the ability of test compounds to inhibit FGFR mediated downstream signaling cascades, i.e., ERK phosphorylation in cells with FGFR aberrations. FGFR aberrations become constitutively active and thus induces cascades of cellular signaling events that result in increased phosphorylation of ERK at Threonine 202 and Tyrosine 204 (pERK). The procedure called In Cell ELISA described below measures the level of cellular pERK in response to FGFR specific inhibitor compounds in FGFR aberrations of AN3CA (FGFR2/k310R, N549K), DMS114 (FGFR1 amplification), RT112 (FGFR3 overexpression/FGFR3-TACC3 fusion) and Hep3B (FGF19 amplification) cells. AN3CA, DMS114 and Hep3B cells are from ATCC. RT112 cells are from Sigma. DMS114 cells are grown and maintained using RPMI-1640 medium supplemented with 10% heat-inactivated fetal bovine serum. AN3CA, Hep3B and RT112 cells are grown and maintained using DMEM supplemented with 10% heat-inactivated fetal bovine serum. On the day before test compound addition, cells are plated in poly-D-lysine coated 96-well cell culture plates (Corning® BioCoat® Cat #356640) at 40000 cells/well/100 μL and grown overnight in a 37° C., 5% CO2 incubator. Test compounds are prepared with 4-fold serial dilutions in DMSO, with a top concentration of 10 μM. On the day of the assay, 50 μL of test compound diluted in media was added to each well of cell culture plate with the final concentration of compounds spanning from 0.000038 μM to 10 μM. After compound addition, cells are incubated for 3 hours at 37° C., 5% CO2 and then the culture medium is removed. Cells are fixed with 4% formaldehyde in phosphate-buffered saline (PBS) and incubated at RT for 20 min. The plate is then washed three times with PBST (PBS with 0.05% tween-20), followed by the incubation with 100 μL of pre-cooled methanol at −20° C. for 20 min. After incubation, methanol is removed, and the plate is washed once with PBST. Cells are permeabilized with 100 µL/well of 0.1% Triton X-100 in PBS at RT for 20 min and then quenched with quenching buffer (PBST containing 1% H2O2 and 0.1% sodium azide) for 20 min at RT with gentle shaking. After washing once with PBST, blocking buffer (250 ul/well, Pierce™ Protein-Free-PBS Blocking Buffer, Cat #37572) was then added to the cells for 1-h incubation at RT, followed by anti-pERK antibody (cell signaling, 1:1000 dilution in 5% BSA in PBST) incubation overnight at 4° C. and secondary antibody-HRP (Jackson immunoresearch, 1:3000 dilution in 5% BSA in PBST) incubation at RT for 1 h. PBST wash is carried out after each step three times. Before the addition of the substrate (Advansta ELISABright), the plate is washed with PBS twice to remove detergent residues. Cellular pERK level is determined using the microplate reader (Biotek Synergy H1) to detect the chemiluminescence signal. IC50 is determined by fitting a 4-parameter sigmoidal concentration-response model. FGFR wild type cells (H1975, PC-9 and AGS) are used to serve as negative control (FGFR selectivity) with the same assay procedures described above.
# [2] = target: T2, FGFR1 (Homo sapiens, UniProt P11362); assay: pERK potency assay (In Cell ELISA), DMS114 cells; format: cell-based; details: DMS114 (FGFR1 amplification) cells, 3 hours
# T2 construct: DMS114 (FGFR1 amplification); host or cells: DMS114
# Excerpt: as §1
# [3] = target: T3, FGFR3 (Homo sapiens, UniProt P22607); assay: pERK potency assay (In Cell ELISA), RT112 cells; format: cell-based; details: RT112 (FGFR3 overexpression/FGFR3-TACC3 fusion) cells, 3 hours
# T3 construct: RT112 (FGFR3 overexpression/FGFR3-TACC3 fusion); host or cells: RT112; the other entry of the earlier key: TACC3 (Q9Y6A5, Transforming acidic coiled-coil-containing protein 3)
# Excerpt: as §1
# [4] = target: T4, Ba/F3 FGFR2-N549K (Homo sapiens, UniProt P21802, N549K, cells depend on it); assay: 2D cell proliferation assay, Ba/F3 FGFR2-N549K; format: cell-based, mouse; details: 96 hours, CTG, read-out: Cell Line, IC50 Ba/F3 FGFR2-N549K
# T4 construct: fused on or other part: Q9H694 (Protein bicaudal C homolog 1)
# Method: (§2) Low IC50 values are indicative of the high potency of the FGFR inhibitor compounds in this assay selling. […] Cell proliferation assays are performed in two-dimensional (2D)) anchorage-dependent conditions in 96 well plates (Corning® Black/Clear flat Bottom, Cat #3603) with the following cell lines: • Ba/F3 FGFR2-BICC1 (human […]): Mouse Ba/F3 cell line stably expressed exogenous human FGFR2-BICC1 fusion gene bearing V546F mutation in FGFR2 Ba/F3; • FGFR2-BICC1 (human FGFR2/[…]): Mouse Ba/F3 cell line stably expressed exogenous human FGFR2-BICC1 fusion gene bearing N549K mutation in FGFR2; • Snu-16: human gastric cancer cell with FGFR2 amplification; • KATO III: human gastric cancer cell with FGFR2 amplification; • AN3CA: Human endometrial cancer with FGFR2 mutation (k310R, N549K); • MFM-223: Human breast cancer with FGFR1/2 amplification; • MFE-296: Human endometrial cancer with FGFR2 mutation (N549K); • MFE-280: Human endometrial cancer with FGFR2 mutation ([…]); • NCI-H1581: human non-small cell lung cancer with FGFR1 amplification; • KG-1a: Acute myelogenous leukemia with FGFR1OP2-FGFR1 translocation; • DMS114: human small cell carcinoma of the lung with FGFR1 amplification; • RT112: human bladder cancer with FGFR3 overexpression/FGFR3-TACC3 fusion; • SW780: human bladder cancer with FGFR3 overexpression/FGFR3-BALAP2L1 fusion; • Hep3B: Liver cancer with FGF19 amplification (FGFR4 ligand); • AGS: Human gastric adenocarcinoma with Kras G12D mutation and FGFR wild type; • PC-9: human non-small cell lung cancer (NSCLC) with wild-type FGFR and an EGFR del19 mutation; or • H1975: human non-small cell lung cancer (NSCLC) with wild-type FGFR and EGFR L858R/T790M mutation.
# (§3) Cell lines are purchased from the American Type Culture Collection (ATCC) or Sigma. All cell lines are maintained in RPMI-1640 or DMEM supplemented with 10% heat-inactivated fetal bovine serum.
# (§4) Cells growing in the log phase are detached with Gibco™ TrypLE™ Express Enzyme and plated in 96 well plate at 3000 to 5000 cells/well in 100 μl of media. After overnight incubation at 37° C., 5% CO2 incubator, cells are treated with compounds (50 uL/well) at the final concentrations spanning from 0.000038 uM to 10 μM (4-fold serial dilution for total of 10 points). Cells are incubated at 37° C., 5% CO2, and 95% humidity incubator for 96 hours. At the end of incubation 2D CTG reagent from Promega was added to each well according to vendors recommendation and mixed for 10 min in dark. The luminescence signals are determined with a Biotek™ plate reader. Data is fitted using a sigmoidal curve analysis program (GraphPad Prism®) with variable hill slope and IC50 is determined.
# [5] = target: T5, Ba/F3 FGFR2-V564F (Homo sapiens, UniProt P21802, V564F, cells depend on it); assay: 2D cell proliferation assay, Ba/F3 FGFR2-V564F; format: cell-based, mouse; details: 96 hours, CTG, read-out: Cell Line, IC50 Ba/F3 FGFR2-V564F
# T5 construct: fused on or other part: Q9H694 (Protein bicaudal C homolog 1)
# Method: as §2, §3, §4
# T1 sequence (P21802 22-821 K310R/N549K): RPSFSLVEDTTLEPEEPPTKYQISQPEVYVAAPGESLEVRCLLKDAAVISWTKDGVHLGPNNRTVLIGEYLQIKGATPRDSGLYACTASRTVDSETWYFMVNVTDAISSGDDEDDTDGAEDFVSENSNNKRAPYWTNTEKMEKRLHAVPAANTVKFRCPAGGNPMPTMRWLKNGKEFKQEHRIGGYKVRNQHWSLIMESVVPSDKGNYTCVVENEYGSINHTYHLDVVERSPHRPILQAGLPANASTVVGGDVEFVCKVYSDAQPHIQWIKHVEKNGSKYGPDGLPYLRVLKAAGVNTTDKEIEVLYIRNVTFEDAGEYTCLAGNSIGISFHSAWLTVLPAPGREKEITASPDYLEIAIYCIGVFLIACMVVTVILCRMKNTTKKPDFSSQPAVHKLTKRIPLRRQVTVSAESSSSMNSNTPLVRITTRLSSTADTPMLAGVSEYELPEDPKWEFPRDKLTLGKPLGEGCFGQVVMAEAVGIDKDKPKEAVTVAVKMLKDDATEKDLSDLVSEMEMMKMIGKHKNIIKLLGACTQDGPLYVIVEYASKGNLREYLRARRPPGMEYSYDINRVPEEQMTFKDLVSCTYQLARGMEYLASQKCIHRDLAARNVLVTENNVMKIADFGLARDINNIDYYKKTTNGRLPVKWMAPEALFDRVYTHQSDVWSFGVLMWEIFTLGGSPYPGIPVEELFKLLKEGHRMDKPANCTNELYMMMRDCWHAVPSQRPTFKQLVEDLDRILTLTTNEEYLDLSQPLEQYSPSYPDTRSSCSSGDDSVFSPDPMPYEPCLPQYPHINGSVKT
# T4 sequence (P21802 whole entry N549K, the tested form may be a part): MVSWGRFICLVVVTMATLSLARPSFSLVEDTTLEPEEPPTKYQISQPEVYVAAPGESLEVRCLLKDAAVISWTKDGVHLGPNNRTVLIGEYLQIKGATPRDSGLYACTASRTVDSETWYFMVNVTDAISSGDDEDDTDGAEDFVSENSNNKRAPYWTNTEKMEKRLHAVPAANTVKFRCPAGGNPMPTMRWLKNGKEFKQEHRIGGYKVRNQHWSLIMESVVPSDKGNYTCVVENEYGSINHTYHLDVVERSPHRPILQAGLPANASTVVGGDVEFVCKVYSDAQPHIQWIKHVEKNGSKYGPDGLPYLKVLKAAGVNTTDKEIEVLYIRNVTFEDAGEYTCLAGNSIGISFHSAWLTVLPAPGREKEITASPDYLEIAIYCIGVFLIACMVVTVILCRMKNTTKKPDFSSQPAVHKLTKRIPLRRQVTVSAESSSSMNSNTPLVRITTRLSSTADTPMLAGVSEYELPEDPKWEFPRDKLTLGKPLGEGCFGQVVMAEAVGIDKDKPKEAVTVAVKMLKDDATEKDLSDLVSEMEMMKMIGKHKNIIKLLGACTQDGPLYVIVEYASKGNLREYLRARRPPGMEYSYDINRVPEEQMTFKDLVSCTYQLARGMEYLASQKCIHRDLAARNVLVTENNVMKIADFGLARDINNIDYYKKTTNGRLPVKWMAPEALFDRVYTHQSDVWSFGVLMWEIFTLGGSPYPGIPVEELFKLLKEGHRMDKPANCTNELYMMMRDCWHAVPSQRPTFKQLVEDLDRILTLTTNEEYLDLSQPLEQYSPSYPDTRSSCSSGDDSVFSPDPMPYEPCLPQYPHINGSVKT
# T5 sequence (P21802 whole entry V564F, the tested form may be a part): as the sequence (P21802 whole entry N549K, the tested form may be a part) above, with K549N, V564F counted along it
# T2 sequence (P11362 22-822): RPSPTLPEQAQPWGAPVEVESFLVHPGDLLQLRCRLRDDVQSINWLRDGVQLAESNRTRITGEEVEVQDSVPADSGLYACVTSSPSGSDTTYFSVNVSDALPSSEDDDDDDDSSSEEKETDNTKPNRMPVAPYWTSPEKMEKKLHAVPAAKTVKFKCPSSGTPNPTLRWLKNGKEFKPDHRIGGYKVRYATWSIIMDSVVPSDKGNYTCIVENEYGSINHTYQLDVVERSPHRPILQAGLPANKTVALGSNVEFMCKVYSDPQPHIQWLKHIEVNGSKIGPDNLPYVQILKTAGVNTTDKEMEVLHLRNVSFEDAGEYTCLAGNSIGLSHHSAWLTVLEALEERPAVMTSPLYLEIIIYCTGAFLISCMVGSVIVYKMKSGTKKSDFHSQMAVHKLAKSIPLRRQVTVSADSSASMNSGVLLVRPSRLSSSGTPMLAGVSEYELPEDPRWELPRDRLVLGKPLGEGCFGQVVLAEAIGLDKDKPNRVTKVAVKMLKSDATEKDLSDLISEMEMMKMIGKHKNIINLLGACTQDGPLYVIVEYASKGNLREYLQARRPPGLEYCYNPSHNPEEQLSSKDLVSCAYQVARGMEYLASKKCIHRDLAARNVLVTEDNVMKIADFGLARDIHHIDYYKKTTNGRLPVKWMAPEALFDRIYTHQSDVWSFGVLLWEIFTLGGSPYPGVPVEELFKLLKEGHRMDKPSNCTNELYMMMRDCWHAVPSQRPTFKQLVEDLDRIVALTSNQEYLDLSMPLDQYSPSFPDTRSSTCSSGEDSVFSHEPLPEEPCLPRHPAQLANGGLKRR
Compound,IC50 [1] [nM],IC50 [2] [nM],IC50 [3] [nM],GI50 [4] [nM],GI50 [5] [nM],FGFR1 IC50/FGFR2 IC50 [1],FGFR3 IC50/FGFR2 IC50 [1]
"C=CC(=O)N1CCC2(CC=C(c3c(-c4ncc(F)cn4)c4c(N)ncnc4n3C)CC2)CC1 [Example 44, 1-(9-(4-amino-5-(5-fluoropyrimidin-2-yl)-7-methyl-7H-pyrrolo[2,3-d]pyrimidin-6-yl)-3-azaspiro[5.5]undec-8-en-3-yl)prop-2-en-1-one]",1 to 10,> 100,> 100,1 to 10,≤ 1,H (a selectivity ratio greater than 500 but less than or equal to 1000),J (a selectivity ratio greater than 2000)
"C=CC(=O)N1CCC2(CC=C(c3c(-c4ncc(OC5CCOC5)cn4)c4c(N)ncnc4n3C)CC2)CC1 (centres unmarked) [Example 47, 1-(9-(4-amino-7-methyl-5-(5-((tetrahydrofuran-3-yl)oxy)pyrimidin-2-yl)-7H-pyrrolo[2,3-d]pyrimidin-6-yl)-3-azaspiro[5.5]undec-8-en-3-yl)prop-2-en-1-one]",≤ 1,> 100,> 100,> 100,> 100,G (a selectivity ratio greater than 150 but less than or equal to 500),I (a selectivity ratio greater than 1000 but less than or equal to 2000)
"C=CC(=O)N1CCC2(CC=C(c3c(-c4ncc(OC5CC5)cn4)c4c(N)ncnc4n3C)CC2)CC1 [Example 50, 1-(9-(4-amino-5-(5-cyclopropoxypyrimidin-2-yl)-7-methyl-7H-pyrrolo[2,3-d]pyrimidin-6-yl)-3-azaspiro[5.5]undec-8-en-3-yl)prop-2-en-1-one]",≤ 1,> 100,> 100,1 to 10,≤ 1,G (a selectivity ratio greater than 150 but less than or equal to 500),I (a selectivity ratio greater than 1000 but less than or equal to 2000)
"C=CC(=O)N1CCC2(CC=C(c3c(-c4cccnn4)c4c(N)ncnc4n3C)CC2)CC1 [Example 61, 1-(9-(4-amino-7-methyl-5-(pyridazin-3-yl)-7H-pyrrolo[2,3-d]pyrimidin-6-yl)-3-azaspiro[5.5]undec-8-en-3-yl)prop-2-en-1-one]",10 to 30,> 100,> 100,–,–,G (a selectivity ratio greater than 150 but less than or equal to 500),G (a selectivity ratio greater than 150 but less than or equal to 500)

# Now from value to compound, other results behind:
IC50 [1] [nM],IC50 [2] [nM],IC50 [3] [nM],GI50 [4] [nM],GI50 [5] [nM],Compound,FGFR1 IC50/FGFR2 IC50 [1],FGFR3 IC50/FGFR2 IC50 [1]
≤ 1,> 100,> 100,1 to 10,≤ 1,"C=CC(=O)N1CCC2(CC=C(c3c(-c4ncc(OC)cn4)c4c(N)ncnc4n3C)CC2)CC1 [Example 43, 1-(9-(4-amino-5-(5-methoxypyrimidin-2-yl)-7-methyl-7H-pyrrolo[2,3-d]pyrimidin-6-yl)-3-azaspiro[5.5]undec-8-en-3-yl)prop-2-en-1-one]",H (a selectivity ratio greater than 500 but less than or equal to 1000),J (a selectivity ratio greater than 2000)
≤ 1,> 100,> 100,1 to 10,1 to 10,"C=CC(=O)N1CCC2(CC=C(c3c(-c4ncc(C5CC5)cn4)c4c(N)ncnc4n3C)CC2)CC1 [Example 45, 1-(9-(4-amino-5-(5-cyclopropylpyrimidin-2-yl)-7-methyl-7H-pyrrolo[2,3-d]pyrimidin-6-yl)-3-azaspiro[5.5]undec-8-en-3-yl)prop-2-en-1-one]",G (a selectivity ratio greater than 150 but less than or equal to 500),H (a selectivity ratio greater than 500 but less than or equal to 1000)
1 to 10,> 100,> 100,1 to 10,≤ 1,"C=CC(=O)N1CCC2(CC=C(c3c(-c4ncc(C5CCOC5)cn4)c4c(N)ncnc4n3C)CC2)CC1 (centres unmarked) [Example 52, 1-(9-(4-amino-7-methyl-5-(5-(tetrahydrofuran-3-yl)pyrimidin-2-yl)-7H-pyrrolo[2,3-d]pyrimidin-6-yl)-3-azaspiro[5.5]undec-8-en-3-yl)prop-2-en-1-one]",H (a selectivity ratio greater than 500 but less than or equal to 1000),I (a selectivity ratio greater than 1000 but less than or equal to 2000)
